Consider one compound from paper PMC6290777, “Inhalation of the prodrug PI3K inhibitor CL27c improves lung function in asthma and fibrosis” (Nature Communications, 2018).

Each structure is given as a SMILES string.

Test [1] deals with Akt phosphorylation (Ser473) in murine neutrophils. The test is described as follows: Akt phosphorylation in primary neutrophils stimulated with C5a. The class given is cell-based, mouse. To be noted: C5a 25 nM. The procedure: Neutrophils were obtained from bone marrow isolated from femurs and tibias of C57BL/6J mice. Isolated bone marrow cells were centrifuged 12 min at 260× g and resuspended in 2 ml of physiologic salt solution and neutrophils were subsequently isolated after centrifugation (30 min at 1100× g, 4 °C without brake) through 3 Percoll gradients (from bottom to top: solution B, 75% of a 90% Percoll and 10% HBSS stock solution; solution C, 64% of a 90% Percoll and 10% HBSS stock solution; solution D 52% of a 90% Percoll and 10% HBSS stock solution). Once collected at the interface between the solution B and solution C, the cells were washed three times with 10 ml of physiologic salt solution and centrifuged for 5 min at 260 × g, 4 °C and pretreated for 1 h with CL27c at different concentration. After stimulation with C5a protein were extracted with Laemnli buffer.
For all cell types, phosphorylated Akt (P-Akt, Ser 473, 1:100, Cell Signaling Technology #4060) production was detected by western blot analysis and quantified with ChemiDoc™ XRS system. P-Akt signals are normalized on endogenous. […] To derive the EC50, all data were plotted on a dose response curve (Graph Pad software) and the EC50 was calculated by using the non-linear regression fit (equation [log agonist] vs response–variable slope). […]
(§1) panel). […] The respective EC50 was calculated by using nonlinear

Test [2] has as its system Akt phosphorylation (Ser473) in CLL cells. In words: Akt phosphorylation in CLL cells stimulated with anti-IgM. The class given is cell-based, human. The conditions noted are these: CL27c 10 nM–10 µM. The procedure: CLL cells (#Hs 505.T, ATCC® CRL-7306™) were cultured with RPMI additioned with 10% FBS and 100 μg/ml penicillin and streptomycin. The day of the assay CLL cells were seeded in 96-well plate at a concentration of 7 × 10^4 cells/ml in starving medium, RPMI free. The cells were starved for 6 h and subsequently pretreated for 1.5 h with CL27c at different concentrations. The cells were stimulated for 15 min with 15 μg/ml of goat anti-Human IgM-MU chain specific antibody (Sigma-Aldrich #I0759-1MG) and proteins were extracted with Laemmli buffer.
For all cell types, phosphorylated Akt (P-Akt, Ser 473, 1:100, Cell Signaling Technology #4060) production was detected by western blot analysis and quantified with ChemiDoc™ XRS system. P-Akt signals are normalized on endogenous. For the calculation of EC50 values, a percentage of residual P-Akt was calculated for each inhibitor concentration by using the control vehicle as 100%. To derive the EC50, all data were plotted on a dose response curve (Graph Pad software) and the EC50 was calculated by using the non-linear regression fit (equation [log agonist] vs response–variable slope).
Supplementary Figure 3: Inhibition of Akt phosphorylation at Ser473 (pAkt473) […]
as §1

For `COC(=O)c1cccc(Cn2cc(-c3cccc4c(=O)cc(N5CCOCC5)[nH]c34)nn2)c1` [CL27c], the Akt/PKB phosphorylation result in test [1] and in test [2] was “readily reduced Akt/PKB phosphorylation” in each case.
